In patent US20250123268A1, “COMPOSITIONS AND METHODS FOR ACCELERATING DEVELOPMENT OF CANCER THERAPEUTICS” (NetNoids Rx Laboratories, LLC, priority 2023, published 2025):
“Also recorded” adds a separate entry of the source.

Assays:
[1] = system: TNBC-1; assay: COMPASS C1/C3a/C3c drug regimen testing, TNBC-1 tumor volume; type: cell-based, human; conditions: for tumor volume (efficacy): 50 nM & 500 nM
Method: Methods: COMPASS Platforms for TIME Modeling for Drug Regimen Testing: I.A. C1/C3a/C3c for TNBC-1 against 1) Doxorubicin 50 nM & 500 nM (Control: DMSO 0.01%), 2) Sacituzumab 5 nM & 20 nM [Control: PBS 0.01%] via continuous treatment w/initial administration at post-seeding Day 1; I.B. C2/C3b/C3d for GBC-1 against 1) Gemcitabine+Cisplatin 1 μM & 10 μM (G+C 7:1 ratio) (Control: DMSO 0.03%) 2) Gemcitabine+Cisplatin 1 μM+Durvalumab 0.1 nM; Gemcitabine+Cisplatin 10 μM+Durvalumab 1 nM (Control: DMSO 0.03%) (G+C 7:1 ratio) via continuous treatment w/initial administration at post-seeding Day 3; II. C1/C3b/C3d for HUAS-1 against 1) HSP90i 50 nM & 100 nM, (Control: DMSO 0.01-0.5%), 2) HSP90i 50 nM+Doxorubicin 50 nM & HSP90i 100 nM+Doxorubicin 50 nM, (Control: DMSO 0.01-0.5%) via continuous treatment w/initial administration at post-seeding Day 3; • Experimental Set-Up: Series (C1/C2) & representative parallel experimentation (C3), n=3 per group; • Evaluation: Imaging—Phase Contrast Imaging via Biotek Cytation 5 (Agilent) with partial well plug for object selection ([…] for C1/C2 & […] for C3) towards tumor volume analysis at Timepoints Day 3 and Day 7/10; • Statistics: One-way ANOVA followed by Tukey's pairwise comparison, n=3, (p<0.05).
FIGS. 28A-L: Common Cancers (TNBC and GBC) vs Established Drug Regimens (Doxorubicin/Sacituzumab and Gemcitabine+Cisplatin+/−Durvalumab, respectively) treatment profiles across progressing, appropriately-matched COMPASS Platforms at Day 3 and Day 10 Timepoints. Compass 1 is used for small molecules. Compass 2 is used in studies when Durvalumab (which is an anti-PDL 1 inhibitor) is added and it works by using the immune system (checkpoint inhibitor), which makes the immune system […]. Sub-studies highlighting the versatility of COMPASS platforms in the generation of specific Tumor-Immune-Microenvironment Models—designed appropriately for intended drug mechanism testing of already clinically-approved treatment regimens. […]

[2] = system: PDL-1 positive PDT of TNBC; assay: PDL-1 positive TNBC PDT tumor volume, anti-PD1 treatment, with/without PBMCs (COMPASS 2); type: cell-based, human; conditions: same model without the addition of PBMCs
Method: All experiments were conducted with n=3 replicates and data was analyzed by One Way ANOVA followed by student's t-test to check for statistical significance.

Sacituzumab
tumor volume vs control ([1]; 5 nM & 20 nM, supplemental structural matrix & oxygenation (C3c), p=0.04): revealed efficacy in oxygenated conditions; also recorded: tumor volume reduction vs control

Pembrolizumab [anti-PD1 inhibitor]
immune checkpoint mediated reduction in tumor volume [2]: not observed

COc1cccc2c1C(=O)c1c(O)c3c(c(O)c1C2=O)C[C@@](O)(C(=O)CO)C[C@@H]3O[C@H]1C[C@H](N)[C@H](O)[C@H](C)O1 [Doxorubicin]
tumor volume (efficacy) ([1]; C1 model): slight efficacy | tumor volume (efficacy) ([1]; C3 models): potential resistance
